According to patent publication US20090118285A1, “USE OF KCNQ-OPENERS FOR TREATING OR REDUCING THE SYMPTOMS OF SCHIZOPHRENIA” (H. Lundbeck A/S, priority 2006, published 2009):

Columns and labels:
[1] = tested on: dopaminergic neurons in the ventral tegmental area; details: ex vivo (Hansen et al. 2005); cited from earlier work
[2] = tested on: DA levels in the nucleus accumbens; assay: Microdialysis: DA levels in the nucleus accumbens of freely moving rats; assay type: in vivo, rat; details: no amphetamine provocation, data not shown
[3] = Inhibition of baseline motility in vehicle-pretreated, vehicle-challenged mice; details: NMRI, mouse, in vivo
[4] = tested on: K(+) current in neuronal cells; details: cited from earlier work
anticonvulsant tests = details: oral and intraperitoneal administration, rats and mice (Rostock et al. 1996); cited from earlier work

Compound: CCOC(=O)Nc1ccc(NCc2ccc(F)cc2)cc1N
- Firing of dopaminergic neurons in the ventral tegmental area [1]: suppress the firing of dopaminergic neurons in the ventral tegmental area ex vivo
- Effect on basal extracellular DA level in the nucleus accumbens [2]: merely provoked levels of DA were affected, but not basal levels of DA
- ED50 at 30 min [3]: 7.6 mg/kg
- Activation of a K(+) current [4]: activate a K(+) current in neuronal cells
- Activity in a range of anticonvulsant tests (anticonvulsant tests): active after oral and intraperitoneal administration in rats and mice in a range of anticonvulsant tests
